Source: patent publication US20030229030A1, “Method of treating interleukin-6-mediated inflammatory diseases” (priority 2002, published 2003)
“And” between values parts separate entries of the source, which are not always exact repeats. Identical values can stand only once. Marks after values point to notes of the source that are not given here. Ends that are not written are not given here.

Experiments:
[1] = tested on: IL-6 secretion from hCBMC; test: IL-6 secretion from human cord blood-derived mast cells (hCBMC), ELISA; type: cell-based; conditions: for secretion of IL-6 (FIG. 3): n=4
Procedure: (§1) Human cord blood-derived mast cells (HCBMC) were grown from CD34+ progenitor mononuclear umbilical cells isolated from umbilical cord blood by positive selection of AC133 (CD 133+/CD34+high) cells by magnetic cell sorting (Miltenyi Biotec, Auburn, Calif.). CD34+ cells were then cultured in Isocove's Modified Dulbecco's Medium (1MDM) containing 100 ng/ml Stem Cell Factor (from Amgen, Thousand Oaks, Calif.) plus test components in 10% FBS at 37° C. in 5% CO2 balanced air. By 10 weeks, 95% of the cells in culture could be identified as mast cells by immuno-staining for tryptase. hCBMC were washed three times in PBS and resuspended in culture medium (1×10^5 cells/200 ul sample). Test substances, e.g., IL-1 were added and cells were incubated at 37° C. in 5% CO2 for six hours for dose-response experiments or for the indicated times in time-course experiments. IL-6 and tryptase were measured in cell-free supernatant fluids by ELISA (R&D Systems, Minneapolis, Minn.) and fluoroenzymeimmunoassay (Pharmacia, Uppsala, Sweden), respectively.
(§2) Dose-response of IL-6 and tryptase secretion from hCBMC and HMC-1 cells were tested after stimulation for six hours with indicated concentrations of IL-1 or other stimuli. Time-course of IL.6 production induced by 50 ng/ml of IL-1 a from CBMC or by 10 ng/ml IL-1 from HMC-1 cells could be tested.
The data in general represent means +/− standard error of the mean from 3 to 4 experiments done in duplicate for each cell type used.

[2] = tested on: tryptase secretion from hCBMC; test: Tryptase secretion from hCBMC mast cell granules, fluoroenzymeimmunoassay; type: cell-based, human; conditions: stimulus alone: CRH 5 × 10^−5M, IL-1 50 ng/ml, anti-IgE 10 μg/ml
Procedure: as §1
Dose-response of IL-6 and tryptase secretion from hCBMC and HMC-1 cells were tested after stimulation for six hours with indicated concentrations of IL-1 or other stimuli. Time-course of IL.6 production induced by 50 ng/ml of IL-1 a from CBMC or by 10 ng/ml IL-1 from HMC-1 cells could be tested. […]

[3] = tested on: IL-6 secretion from human mast cells; test: IL-6 production and secretion from human mast cells, quercetin alone or with IL-1; type: cell-based
Procedure: as §1
In this experiment, the effects of quercetin, alone or together with IL-1, on the production and secretion of IL-6 from human mast cells was studied.

[4] = tested on: TNF-α production from rat peritoneal macrophages; test: TNF-α production from LPS-stimulated rat peritoneal macrophages; type: cell-based; conditions: rat macrophages stimulated by LPS; quercetin dihydrate 100 μM, 10 mins prior to stimulus, 6 hrs
Description: (§3) In this experiment, the effect of quercetin on the production of IL-6 and TNF-a from rat peritoneal macrophages and human mast cells that are involved in inflammation was studied. [table]

[5] = tested on: IL-6 production from rat peritoneal macrophages; test: IL-6 production from LPS-stimulated rat peritoneal macrophages; type: cell-based; conditions: rat macrophages stimulated by LPS; quercetin dihydrate 100 μM, 10 mins prior to stimulus, 6 hrs
Description: as §3

[6] = tested on: IL-6 secretion from HMC-1 cells; test: IL-6 secretion from HMC-1 human leukemic mast cells; type: cell-based; conditions: quercetin 10 μM, IL-10 2 ng/ml
Procedure: Human leukemic mast cells (HMC-1) was obtained from Dr. Butterfield (Mayo Clinic, Rochester, Minn.), and cultured in IMDM medium supplemented with 10% FBS, PBS and 2 μM alpha.thioglycerol. HCBMC or HMC-I cells 2×10^5/200 μl sample were stimulated in full culture medium as indicated.
as §2
The effect of IL-10 on HMC-1 leukemic cells producing IL-6, especially cells stimulated by IL-1 that induces selective release of IL-6, was studied alone or together with a flavonoid compound.

[7] = tested on: TNF-α production from human mast cells (hCBMC); test: TNF-α production from hCBMC stimulated by IgE and anti-IgE; type: cell-based; conditions: quercetin dihydrate 100 μM, 10 mins prior to stimulus, 6 hrs
Description: as §3

[8] = hCBMC + anti-IgE, azelastine 1 μM, quercetin 10 μM
[9] = hCBMC, substance alone: anti-IgE, azelastine 1 μM, quercetin 10 μM
[10] = IL-1 50 ng/ml + quercetin 10 μM
[11] = IL-1 50 ng/ml + quercetin 100 μM
[12] = HMC-1, substance alone: IL-1 50 ng/ml

**Q.** For “CRH: corticotropin-releasing hormone (SEEPPISLDLTFHLLREVLEMARAEQLAQQAHSNRKLMEII; ends and bridges not checked; UniProt P06850 154-194, looked up)”, which “IL-6 (pg/ml/5 × 10^6 cells)” value ([1]; hCBMC, stimulus alone: CRH 5 × 10^−5M, IL-1 50 ng/ml, anti-IgE 10 μg/ml) is on record?
**A.** 33.3 +/− 3.5 pg/ml/5 × 10^6 cells

**Q.** And the Tryptase % total [2]?
**A.** 4.20 % total and 4.26 % total

**Q.** For `CN1CCCC(n2nc(Cc3ccc(Cl)cc3)c3ccccc3c2=O)CC1` (centres unmarked) [Azelastine, reference compound], which “inhibition of IL-6 secretion from hCBMC” value ([1]; azelastine at concentrations below 1 μM) is on record?
**A.** ineffective

**Q.** What about the “IL-6 (pg/ml/5 × 105cells)” value [1, 8] of the same molecule?
**A.** 30.6 pg/ml/5 × 105cells

**Q.** And the “inhibition of IL-6 secretion from hCBMC (FIG. 4)” value ([1]; hCBMC + anti-IgE, dose-dependent)?
**A.** potent inhibitor

**Q.** And the “IL-6 secretion (FIG. 4)” value ([1]; hCBMC, azelastine 60 μM)?
**A.** below control levels

**Q.** And the “IL-6 (pg/ml/5 × 105cells)” value [1, 9]?
**A.** 11.9 pg/ml/5 × 105cells

**Q.** Which “IL-6 (pg/ml/5 × 10^5 cells)” value [3, 10] does the source give for `O=c1c(O)c(-c2ccc(O)c(O)c2)oc2cc(O)cc(O)c12` [Quercetin, quercetin] here?
**A.** 300.1 pg/ml/5 × 10^5 cells

**Q.** And the “Inhibition (% total)” value [3, 10]?
**A.** 32.7* % total

**Q.** And the “IL-6 (pg/ml/5 × 10^5 cells)” value [3, 11]?
**A.** 150.4 pg/ml/5 × 10^5 cells

**Q.** What about the “Inhibition (% total)” value [3, 11] of the same molecule?
**A.** 82.0* % total

**Q.** What about the “IL-6 (pg/ml/5 × 10^5 cells)” value ([3]; quercetin 10 μM alone) of the same molecule?
**A.** 74.9 pg/ml/5 × 10^5 cells

**Q.** And the “IL-6 (pg/ml/5 × 10^5 cells)” value ([3]; quercetin 100 μM alone)?
**A.** 56.1 pg/ml/5 × 10^5 cells

**Q.** What about the “IL-6 (pg/ml/5 × 105cells)” value [1, 8] of the same molecule?
**A.** 21.4 pg/ml/5 × 105cells

**Q.** What about the “Inhibition (% total)” value [1, 8] of the same molecule?
**A.** 32.9 % total

**Q.** What about the “secretion of IL-6 (FIG. 3)” value ([1]; hCBMC + anti-IgE, three lower concentrations of quercetin (1, 0.1, 0.01 μM)) of the same molecule?
**A.** only slightly reduced

**Q.** And the “secretion of IL-6 (FIG. 3)” value ([1]; hCBMC + anti-IgE, two highest concentrations of quercetin (100, 10 μM))?
**A.** greatly reduced

**Q.** What about the “Inhibition (% of total) IL-6” value ([1]; hCBMC stimulated by IgE and anti-IgE, quercetin dihydrate 100 μM, 10 mins prior to stimulus, 6 hrs) of the same molecule?
**A.** 95.8 % of total

**Q.** What about the “secretion of IL-6 from mast cells stimulated by anti-IgE” value ([1]; hCBMC, 0.1 mM quercetin 30 mins, then anti-IgE 6 hrs, replicated 6 times) of the same molecule?
**A.** profoundly inhibited

**Q.** What about the “IL-6 (pg/10^6 cells)” value ([1]; hCBMC, quercetin 0.1 mM alone, no anti-IgE) of the same molecule?
**A.** 10.8 pg/10^6 cells

**Q.** What about the “IL-6 (pg/10^6 cells)” value ([1]; hCBMC, quercetin 0.1 mM for 10 mins prior to addition of anti-IgE) of the same molecule?
**A.** 50.5 pg/10^6 cells

**Q.** And the “IL-6 (pg/ml/5 × 105cells)” value [1, 9]?
**A.** 9.8 pg/ml/5 × 105cells

**Q.** And the “Inhibition (% of total) TNF-α” value [4]?
**A.** 88.3 % of total

**Q.** What about the “Inhibition (% of total) IL-6” value [5] of the same molecule?
**A.** 96.3 % of total

**Q.** And the “IL-6 (pg/ml/10^5 cells)” value ([6]; HMC-1 + IL-1 (50 ng/ml))?
**A.** 299.0 pg/ml/10^5 cells

**Q.** And the “Inhibition (% total)” value ([6]; HMC-1 + IL-1 (50 ng/ml))?
**A.** 5.37 % total

**Q.** What about the “IL-6 (pg/ml/10^5 cells)” value [6, 12] of the same molecule?
**A.** 79.8 pg/ml/10^5 cells

**Q.** And the “Inhibition (% of total) TNF-α” value [7]?
**A.** 78.3 % of total

**Q.** How did the “secretion of IL-6 (FIG. 3)” value ([1]; hCBMC + anti-IgE, morin (100-0.01 μM listed)) turn out when `O=c1c(O)c(-c2ccc(O)cc2O)oc2cc(O)cc(O)c12` [Morin, reference compound] was run?
**A.** only a small effect

B1: IL-10: interleukin-10 (protein, UniProt P22301 19-178, looked up)
Interleukin-10: SPGQGTQSENSCTHFPGNLPNMLRDLRDAFSRVKTFFQMKDQLDNLLLKESLLEDFKGYLGCQALSEMIQFYLEEVMPQAENQDPDIKAHVNSLGENLKTLRLRLRRCHRFLPCENKSKAVEQVKNAFNKLQEKGIYKAMSEFDIFINYIEAYMTMKIRN
**Q.** What does the source list for B1?
**A.** IL-6 (pg/ml/10^5 cells) ([6]; HMC-1 + IL-1 (50 ng/ml)): 275.9 pg/ml/10^5 cells; Inhibition (% total) ([6]; HMC-1 + IL-1 (50 ng/ml)): 31.32 % total; IL-6 (pg/ml/10^5 cells) [6, 12]: 85.6 pg/ml/10^5 cells
